pIC50: −log10 of the molar value. Active and inactive are the calls of the source. Unless noted, the rule behind the calls is not given here.
Assays:
[1] = Cardiotoxicity in human Cor.4U hiPSC-CM cells assessed as early after depolarization at 10 uM measured after 30 mins by FluoVolt dye based fluorescence assay; assay type: toxicity; settings: 0.5 h
[2] = target: T1, Sodium-dependent dopamine transporter (Homo sapiens, UniProt Q01959); test: Inhibition of human DAT expressed in HEK293 cells preloaded with [3H]-MPP+ assessed as reduction in D-amphetamine-induced tritium efflux at 10 uM treated with compound prior to amphetamine challenge measured every 4 mins by liquid scintillation counting analysis; assay type: cell-based
T1 sequence (Q01959 whole entry): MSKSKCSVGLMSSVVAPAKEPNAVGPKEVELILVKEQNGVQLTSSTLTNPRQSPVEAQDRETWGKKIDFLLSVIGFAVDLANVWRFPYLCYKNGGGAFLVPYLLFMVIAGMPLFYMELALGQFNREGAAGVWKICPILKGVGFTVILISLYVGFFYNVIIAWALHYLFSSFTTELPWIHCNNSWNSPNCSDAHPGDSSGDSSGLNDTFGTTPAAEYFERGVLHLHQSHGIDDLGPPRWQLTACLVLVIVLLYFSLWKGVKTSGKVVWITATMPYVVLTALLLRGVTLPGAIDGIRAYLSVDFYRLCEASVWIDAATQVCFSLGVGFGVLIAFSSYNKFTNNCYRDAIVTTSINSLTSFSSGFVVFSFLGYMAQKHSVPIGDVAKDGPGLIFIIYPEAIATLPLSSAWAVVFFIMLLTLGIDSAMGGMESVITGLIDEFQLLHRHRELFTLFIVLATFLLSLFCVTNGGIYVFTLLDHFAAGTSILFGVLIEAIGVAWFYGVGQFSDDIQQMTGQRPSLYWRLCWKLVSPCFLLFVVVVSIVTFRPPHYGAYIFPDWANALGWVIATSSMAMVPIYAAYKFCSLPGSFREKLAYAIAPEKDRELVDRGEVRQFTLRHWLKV

[3] = Plasma concentration in Sprague-Dawley rat at 7.5 mg/kg, ip compound dissolved in 40% Kolliphor-EL in water measured after 3 hrs by LC-MS/MS analysis; assay type: ADME, organism-based
[4] = Drug level in Sprague-Dawley rat brain at 7.5 mg/kg, ip compound dissolved in 40% Kolliphor-EL in water measured after 3 hrs by LC-MS/MS analysis; assay type: ADME, organism-based; settings: read-out: Ct
[5] = target: T2, Sodium-dependent noradrenaline transporter (Homo sapiens, UniProt P23975); test: Inhibition of wild type human NET expressed in HEK293 cells assessed as inhibition of [3H]-MPP+ reuptake preincubated for 5 mins followed by [3H]MPP+ addition and measured after 3 mins by liquid scintillation counting analysis; assay type: cell-based; settings: for pIC50: read-out: IC50; for IC50: hek293
T2 sequence (P23975 whole entry): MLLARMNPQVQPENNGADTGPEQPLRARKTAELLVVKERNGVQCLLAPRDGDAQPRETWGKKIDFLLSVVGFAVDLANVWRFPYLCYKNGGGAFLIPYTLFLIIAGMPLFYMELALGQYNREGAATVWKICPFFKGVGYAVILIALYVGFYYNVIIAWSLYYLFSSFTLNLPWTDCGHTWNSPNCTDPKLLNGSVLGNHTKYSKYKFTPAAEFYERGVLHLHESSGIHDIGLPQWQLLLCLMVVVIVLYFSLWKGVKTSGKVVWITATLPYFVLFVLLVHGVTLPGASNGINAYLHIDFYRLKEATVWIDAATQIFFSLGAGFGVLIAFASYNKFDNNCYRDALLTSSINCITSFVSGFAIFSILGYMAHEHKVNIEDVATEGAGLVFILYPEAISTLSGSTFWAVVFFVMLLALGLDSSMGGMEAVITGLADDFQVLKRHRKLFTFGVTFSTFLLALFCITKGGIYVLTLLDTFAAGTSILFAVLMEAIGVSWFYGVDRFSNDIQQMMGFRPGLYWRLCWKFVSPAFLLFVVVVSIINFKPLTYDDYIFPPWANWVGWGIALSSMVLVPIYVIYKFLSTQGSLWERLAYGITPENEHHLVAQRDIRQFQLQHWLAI

[6] = Plasma concentration in Sprague-Dawley rat at 7.5 mg/kg, ip compound dissolved in 40% Kolliphor-EL in water measured after 7 hrs by LC-MS/MS analysis; assay type: ADME, organism-based
Rattus norvegicus [7] = test: Increase in extracellular dopamine level in Sprague-Dawley rat nucleus accumbens in brain at 1 mg/kg, ip measured after 50 mins by RP-HPLC analysis based microdialysis method; assay type: functional, organism-based
Rattus norvegicus [8] = test: Increase in extracellular dopamine level in Sprague-Dawley rat nucleus accumbens in brain at 10 mg/kg, ip measured after 50 mins by RP-HPLC analysis based microdialysis method relative to control; assay type: functional
[9] = Cardiotoxicity in human Cor.4U hiPSC-CM cells assessed as effect on action potential shape at 10 uM measured after 30 mins by FluoVolt dye based fluorescence assay; assay type: toxicity; settings: 0.5 h
[10] = Ratio of IC50 for neurotoxicity against rat cortical neuron assessed as inhibition of valid neuron count by ArrayScan analysis to IC50 for wild type human dopamine transporter expressed in HEK293 cells
[11] = target: T1, Sodium-dependent dopamine transporter; test: Potency index, ratio of modafinil IC50 to compound IC50 for wild type human dopamine transporter expressed in HEK293 cells assessed as inhibition of [3H]dopamine reuptake preincubated for 5 mins followed by [3H]dopamine addition and measured after 1 min by liquid scintillation analysis; assay type: cell-based
[12] = target: Sodium-dependent serotonin transporter (Homo sapiens, UniProt P31645); assay type: cell-based, HEK293; settings: for IC50: hek293
Chain of Sodium-dependent serotonin transporter (P31645 whole entry): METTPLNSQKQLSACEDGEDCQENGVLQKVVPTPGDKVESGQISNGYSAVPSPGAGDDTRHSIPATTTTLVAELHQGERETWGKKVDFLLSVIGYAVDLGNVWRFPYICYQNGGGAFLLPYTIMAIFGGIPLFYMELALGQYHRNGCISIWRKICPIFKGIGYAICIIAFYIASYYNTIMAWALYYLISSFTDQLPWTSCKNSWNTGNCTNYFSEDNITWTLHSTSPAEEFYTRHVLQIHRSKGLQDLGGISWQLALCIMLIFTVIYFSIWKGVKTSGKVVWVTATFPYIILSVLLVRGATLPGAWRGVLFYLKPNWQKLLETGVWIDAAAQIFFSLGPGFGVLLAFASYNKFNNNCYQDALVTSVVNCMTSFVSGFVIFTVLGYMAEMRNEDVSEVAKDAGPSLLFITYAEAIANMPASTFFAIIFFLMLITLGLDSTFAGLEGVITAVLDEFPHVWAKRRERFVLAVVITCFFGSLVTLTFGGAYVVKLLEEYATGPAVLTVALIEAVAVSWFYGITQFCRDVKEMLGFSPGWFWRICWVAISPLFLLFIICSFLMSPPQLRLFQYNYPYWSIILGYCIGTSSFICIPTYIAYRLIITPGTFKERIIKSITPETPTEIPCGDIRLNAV
Description: Inhibition of wild type human SERT expressed in HEK293 cells assessed as inhibition of [3H]-5HT reuptake preincubated for 5 mins followed by [3H]5HT addition and measured after 1 min by liquid scintillation counting analysis

[13] = Ratio of IC50 for neurotoxicity against rat cortical neuron assessed as inhibition of neurite total length per neuron by ArrayScan analysis to IC50 for wild type human dopamine transporter expressed in HEK293 cells
[14] = Ratio of IC50 for neurotoxicity against rat cortical neuron assessed as inhibition of mean neurite average length by ArrayScan analysis to IC50 for wild type human dopamine transporter expressed in HEK293 cells
[15] = Neurotoxicity in rat cortical neuron assessed as inhibition of valid neuron count incubated for 72 hrs by Hoechst 33342 staining based ArrayScan analysis; assay type: toxicity, cell-based, Cortical neurone; settings: rat cortical neurons
[16] = Plasma concentration in Sprague-Dawley rat at 7.5 mg/kg, ip compound dissolved in 40% Kolliphor-EL in water measured after 10 hrs by LC-MS/MS analysis; assay type: ADME, organism-based
[17] = Drug level in Sprague-Dawley rat brain at 7.5 mg/kg, ip compound dissolved in 40% Kolliphor-EL in water measured after 10 hrs by LC-MS/MS analysis; assay type: ADME, organism-based; settings: in vivo, BLD = below limit of detection
[18] = target: T1, Sodium-dependent dopamine transporter; test: Inhibition of wild type human dopamine transporter expressed in HEK293 cells assessed as inhibition of [3H]dopamine reuptake preincubated for 5 mins followed by [3H]dopamine addition and measured after 1 min by liquid scintillation analysis; assay type: cell-based; settings: read-out: IC50
[19] = target: T1, Sodium-dependent dopamine transporter; test: Inhibition of human DAT expressed in HEK293 cells preloaded with [3H]-MPP+ assessed as decrease in tritium efflux at 10 uM measured every 4 mins by liquid scintillation counting analysis; assay type: cell-based
[20] = Half life in Sprague-Dawley rat at 7.5 mg/kg, ip compound dissolved in 40% Kolliphor-EL in water by LC-MS/MS analysis; assay type: ADME, organism-based; settings: in vivo
[21] = Plasma concentration in Sprague-Dawley rat at 7.5 mg/kg, ip compound dissolved in 40% Kolliphor-EL in water measured after 1 hr by LC-MS/MS analysis; assay type: ADME, organism-based
[22] = Neurotoxicity in rat cortical neuron assessed as inhibition of neurite outgrowth by measuring mean neurite average length incubated for 72 hrs by Hoechst 33342 staining based ArrayScan analysis; assay type: toxicity, cell-based, Cortical neurone; settings: rat cortical neurons
[23] = target: T1, Sodium-dependent dopamine transporter; test: Potency index, ratio of (R)-modafinil IC50 to compound IC50 for wild type human dopamine transporter expressed in HEK293 cells assessed as inhibition of [3H]dopamine reuptake preincubated for 5 mins followed by [3H]dopamine addition and measured after 1 min by liquid scintillation analysis; assay type: cell-based
[24] = Drug level in Sprague-Dawley rat brain at 7.5 mg/kg, ip compound dissolved in 40% Kolliphor-EL in water measured after 7 hrs by LC-MS/MS analysis; assay type: ADME, organism-based; settings: read-out: Ct
[25] = Neurotoxicity in rat cortical neuron assessed as inhibition of neurite total length per neuron incubated for 72 hrs by Hoechst 33342 staining based ArrayScan analysis; assay type: toxicity, cell-based, Cortical neurone; settings: rat cortical neurons
[26] = Drug level in Sprague-Dawley rat brain at 7.5 mg/kg, ip compound dissolved in 40% Kolliphor-EL in water measured after 1 hr by LC-MS/MS analysis; assay type: ADME, organism-based; settings: read-out: Ct
[27] = AUC(0 to infinity) in Sprague-Dawley rat at 7.5 mg/kg, ip compound dissolved in 40% Kolliphor-EL in water by LC-MS/MS analysis; assay type: ADME, organism-based; design: dose 7.5 mg/kg, time infinity, route intraperitoneal; settings: in vivo
[28] = Cardiotoxicity in human Cor.4U hiPSC-CM cells assessed as effect on action potential duration at 10 uM measured after 30 mins by FluoVolt dye based fluorescence assay; assay type: toxicity; settings: 0.5 h
[29] = target: T2, Sodium-dependent noradrenaline transporter; test: Inhibition of wild type human NET expressed in HEK293 cells assessed as inhibition of [3H]-MPP+ reuptake preincubated for 8 mins followed by [3H]MPP+ addition and measured after 3 mins by liquid scintillation counting analysis; assay type: cell-based
[30] = Half life in Sprague-Dawley rat at 10 mg/kg, ip compound dissolved in DMSO/Tween 80/Saline by HPLC-MS analysis; assay type: ADME, organism-based; settings: in vivo
[31] = AUC(0 to infinity) in Sprague-Dawley rat at 10 mg/kg, ip compound dissolved in DMSO/Tween 80/Saline by HPLC-MS analysis; assay type: ADME, organism-based; design: dose 10 mg/kg, time infinity, route intraperitoneal; settings: in vivo
[32] = Plasma concentration in Sprague-Dawley rat at 10 mg/kg, ip compound dissolved in DMSO/Tween 80/Saline measured after 1 hr by HPLC-MS analysis; assay type: ADME, organism-based
Cortical neurone = test: Cytotoxicity in rat cortical neuron assessed as inhibition of cell viability incubated for 72 hrs by Hoechst 33342 staining based ArrayScan analysis

| Compound | Activity [1] | pIC50 [5] | Activity [9] | IC50 [12] | IC50 at 72 h [15] [µM] | pIC50 [18] | IC50 at 72 h [22] [µM] | IC50 at 72 h [25] [µM] | Activity [28] | other results |
| --- | --- | --- | --- | --- | --- | --- | --- | --- | --- | --- |
| [O-][S@@+](Cc1cscn1)[C@@H](c1ccccc1)c1ccc(Br)cc1 | Non-Toxic | 4.14 | Non-Toxic | Not Active | > 100 | 6.19 | > 100 | > 100 | Non-Toxic | inhibition [2]: Active; concentration at 3 h [3]: 1210 nM; concentration at 3 h [4]: 409 nM; concentration at 7 h [6]: 89.6 nM; Activity (Rattus norvegicus [7]): inactive; Activity (Rattus norvegicus [8]): 20%; Ratio IC50 [10]: >100; Ratio IC50 [11]: 20; Ratio IC50 [13]: >100; Ratio IC50 [14]: >100; concentration at 10 h [16]: 23.8 nM; Ct [17]: Bld; inhibition [19]: Active; half-life [20]: 96 min; concentration at 1 h [21]: 2200 nM; Ratio IC50 [23]: 10; concentration at 7 h [24]: 44.3 nM; concentration at 1 h [26]: 803 nM; AUC(0-inf) [27]: 5.84 µM·h |
| Cc1nc(C[S+]([O-])C(c2ccccc2)c2ccccc2)cs1 (configuration not stated) | – | – | – | Not Active | – | 5.49 | – | – | – | pIC50 [29]: 3.76 |
| [O-][S@+](Cc1cscn1)[C@@H](c1ccccc1)c1ccc(Br)cc1 | Non-Toxic | – | Non-Toxic | Not Active | – | 4.20 | – | – | Non-Toxic | IC50 [5]: Not Active |
| NC(=O)C[S@@+]([O-])C(c1ccccc1)c1ccccc1 [ARMODAFINIL] | – | 3.77 | – | – | – | – | – | – | – | half-life [30]: 24 min; AUC(0-inf) [31]: 1.18 µM·h; concentration at 1 h [32]: 3900 ng/mL |
| [O-][S+](Cc1cncs1)C(c1ccccc1)c1ccccc1 (configuration not stated) | – | – | – | – | – | 5.34 | – | – | – | half-life [30]: 54 min; AUC(0-inf) [31]: 13.5 µM·h |
| COC(=O)Nc1nc2ccc(C(=O)c3cccs3)cc2[nH]1 [NOCODAZOLE] | – | – | – | – | 2.22 | – | 0.097 | 0.0997 | – | Activity (Cortical neurone): Toxic |
| [O-][S@@+](Cc1cscn1)[C@H](c1ccccc1)c1ccc(Br)cc1 | Non-Toxic | – | Non-Toxic | Not Active | – | 5.52 | – | – | Non-Toxic | IC50 [5]: Not Active |
| [O-][S@+](Cc1cscn1)[C@H](c1ccccc1)c1ccc(Br)cc1 | Non-Toxic | 4.28 | Non-Toxic | – | – | 5.96 | – | – | Non-Toxic | pIC50 ([12]; read-out: IC50): 4.23 |
| [O-][S+](Cc1nccs1)C(c1ccccc1)c1ccccc1 (configuration not stated) | – | – | – | Not Active | – | 4.83 | – | – | – | pIC50 [29]: 3.38 |
| CN(C)CCCN1c2ccccc2Sc2ccc(Cl)cc21 [CHLORPROMAZINE] | – | – | – | – | 7.99 | – | 9.02 | 13.8 | – | Activity (Cortical neurone): Non-Toxic |

Reference: ChEMBL document CHEMBL4376858, “Structure-Activity Relationships of Novel Thiazole-Based Modafinil Analogues Acting at Monoamine Transporters” (J Med Chem, 2020)
